Assay results taken from patent US10226041B2, “Compositions and methods for improving the quality of processed sperm” (Inguran, LLC, priority 2011, dated 2019).

System: sex-sorted sperm cells
Assay: CASA post-thaw motility of sex sorted bull sperm treated with OSR
Type: cell-based, bovine
Set-up: key to BCF: beat cross frequency in Hz; key to ALH: lateral head displacement in μm; key to STR / LIN: percent; key to Motile: percent motile sperm; key to VAP / VSL / VCL: velocity in μm/s
Details: 3 step
Text: 5. Sperm Motility Evaluations by CASA. A comparison of viewing chambers and slides can be done in a variety of IVOS instruments, which for example only can be a Hamilton-Thorne IVOS (Hamilton-Thorne, Beverly, Mass.). Instrument settings: image capture; frames per second=60; number of frames=30; cell detection; minimum contrast=50; minimum cell size=5; defaults, cell size=5; cell intensity=50; progressive cells, path velocity=50 um/s; straightness ≥70%; slow cells (um/s); average path velocity (VAP, <30 um/s), straight-line velocity (VSL, <15 um/s). The CASA motility variables measured can be a percentage of total motile sperm (motile), percentage of progressively motile sperm (progressive), VAO, VSL, curvilinear velocity (VCL, um/s), average lateral head displacement (ALK, um) and the number of times the sperm head crosses the mean path/s (BCF, Hz), straight-line sperm motility (STR, %), and linear sperm motility (LIN, %). See for instance, Lenz, R W, et al., J Anim Sci (2011) 89:383-388, incorporated by reference herein in its entirety.
One set of semen from each bull was used as a control while to the remaining sets of semen samples were added vitamin B12, as the antioxidant, at respective concentrations of 0.5 mg/ml and 0.25 mg/ml. For each sample, the same concentration of vitamin B12 was added (i) during the staining process, and (ii) in the catch fluid of the collection vessel. […] Sperm samples were sorted in “High Purity” mode, and the collected sex-sorted sperm were extended with a cryoextender, which in some cases again contained the same concentration of vitamin B12 and the samples were frozen. Three hours after thawing (which is a standard time frame to conduct quality control assessments on sorted frozen thawed sperm samples) the thawed samples were put through CASA, a machine that provides various data on sperm including motility and progressive motility information.
In the tables below: VAP (average path velocity (μm/s)); VSL (straight-line velocity (μm/s)); VCL (curvilinear velocity (μm/s)); ALH (average lateral head displacement (μm)); BCF (the number of times the sperm head crosses the mean path/s in Hz); STR (percent straight-line sperm motility); LIN (percent linear sperm motility); PIA (percent intact acrosomes); motile (percent motile sperm); and progressive (percent progressively motile sperm).
There is no correlation with regard to randomly assigned names such as “Bull A.” Bull A from Example 5 is not the same bull as Bull A from Example 7.
In both cases the concentration of the vitamin B12 was 1 mg/ml. For all other bulls in the table below unless otherwise indicated, the concentration of vitamin B12 added was also 1 mg/ml.
In an additional experiment, motility and progressive motility were checked 3.75 hours after thawing a sex sorted semen sample treated with the antioxidant. The OSR was not added to the control sample. The semen sample was derived from a single bull. 0.25 mg/ml concentration of vitamin B12 was added to the test sample during the staining step, the collecting step (in the catch fluid of the collecting vessel) and in the cryoprotectant extender prior to freezing the sample.
[…] The OSR was not added to the control samples. The semen samples were derived from two Holstein bulls.

[1] = Holstein 0 hr post-thaw, .25 mg/ml
[2] = Holstein 0 hr post-thaw, .35 mg/ml
[3] = Holstein 0 hr post-thaw, .45 mg/ml
[4] = Holstein 3 hr post-thaw (1st block), .25 mg/ml
[5] = Holstein 3 hr post-thaw (1st block), .35 mg/ml
[6] = Holstein 3 hr post-thaw (1st block), .45 mg/ml
[7] = Holstein 3 hr post-thaw (2nd block), .25 mg/ml
[8] = Holstein 3 hr post-thaw (2nd block), .35 mg/ml
[9] = Holstein 3 hr post-thaw (2nd block), .45 mg/ml
[10] = Holstein 6 hr post-thaw (1st block), .25 mg/ml
[11] = Holstein 6 hr post-thaw (1st block), .35 mg/ml
[12] = Holstein 6 hr post-thaw (1st block), .45 mg/ml
[13] = Holstein 6 hr post-thaw (2nd block), .25 mg/ml
[14] = Holstein 6 hr post-thaw (2nd block), .35 mg/ml
[15] = Holstein 6 hr post-thaw (2nd block), .45 mg/ml
[16] = Jersey 0 hr post-thaw, .25 mg/ml
[17] = Jersey 0 hr post-thaw, .35 mg/ml
[18] = Jersey 0 hr post-thaw, .45 mg/ml
[19] = Jersey 3 hr post-thaw, .25 mg/ml
[20] = Jersey 3 hr post-thaw, .35 mg/ml
[21] = Jersey 3 hr post-thaw, .45 mg/ml

## O=C(O)CCC(=O)C(=O)O [AKG, Alpha-ketoglutarate]
[1]
  ALH: 8
  BCF: 27
  LIN: 48
  Motile: 91
  Prog: 75
  STR: 82
  VAP: 104
  VCL: 185
  VSL: 81
[2]
  ALH: 7
  BCF: 29
  LIN: 51
  Motile: 80
  Prog: 65
  STR: 85
  VAP: 94
  VCL: 165
  VSL: 80
[3]
  ALH: 7
  BCF: 30
  LIN: 57
  Motile: 86
  Prog: 75
  STR: 89
  VAP: 98
  VCL: 162
  VSL: 88
[4]
  ALH: 7
  BCF: 26
  LIN: 45
  Motile: 77
  Prog: 60
  STR: 81
  VAP: 99
  VCL: 176
  VSL: 79
[5]
  ALH: 6
  BCF: 25
  LIN: 50
  Motile: 63
  Prog: 48
  STR: 83
  VAP: 85
  VCL: 145
  VSL: 70
[6]
  ALH: 5
  BCF: 24
  LIN: 56
  Motile: 60
  Prog: 56
  STR: 85
  VAP: 94
  VCL: 145
  VSL: 80
[7]
  ALH: 6
  BCF: 26
  LIN: 47
  Motile: 71
  Prog: 55
  STR: 81
  VAP: 96
  VCL: 169
  VSL: 77
[8]
  ALH: 5
  BCF: 21
  LIN: 50
  Motile: 64
  Prog: 38
  STR: 84
  VAP: 69
  VCL: 117
  VSL: 57
[9]
  ALH: 6
  BCF: 25
  LIN: 53
  Motile: 60
  Prog: 50
  STR: 84
  VAP: 90
  VCL: 144
  VSL: 75
[10]
  ALH: 6
  BCF: 17
  LIN: 39
  Motile: 36
  Prog: 7
  STR: 76
  VAP: 44
  VCL: 87
  VSL: 33
[11]
  ALH: 7
  BCF: 16
  LIN: 40
  Motile: 58
  Prog: 7
  STR: 76
  VAP: 42
  VCL: 80
  VSL: 32
[12]
  ALH: 5
  BCF: 22
  LIN: 48
  Motile: 52
  Prog: 22
  STR: 82
  VAP: 55
  VCL: 96
  VSL: 46
[13]
  ALH: 6
  BCF: 17
  LIN: 39
  Motile: 36
  Prog: 7
  STR: 76
  VAP: 44
  VCL: 87
  VSL: 33
[14]
  ALH: 7
  BCF: 16
  LIN: 40
  Motile: 58
  Prog: 7
  STR: 76
  VAP: 42
  VCL: 80
  VSL: 32
[15]
  ALH: 5
  BCF: 22
  LIN: 48
  Motile: 52
  Prog: 22
  STR: 82
  VAP: 55
  VCL: 96
  VSL: 46
[16]
  ALH: 7
  BCF: 24
  LIN: 48
  Motile: 67
  Prog: 51
  STR: 83
  VAP: 83
  VCL: 152
  VSL: 68
[17]
  ALH: 6
  BCF: 25
  LIN: 47
  Motile: 57
  Prog: 43
  STR: 82
  VAP: 79
  VCL: 146
  VSL: 63
[18]
  ALH: 6
  BCF: 27
  LIN: 56
  Motile: 81
  Prog: 66
  STR: 87
  VAP: 81
  VCL: 133
  VSL: 70
[19]
  ALH: 5
  BCF: 24
  LIN: 46
  Motile: 33
  Prog: 16
  STR: 79
  VAP: 65
  VCL: 117
  VSL: 49
[20]
  ALH: 6
  BCF: 25
  LIN: 45
  Motile: 26
  Prog: 10
  STR: 80
  VAP: 59
  VCL: 110
  VSL: 46
[21]
  ALH: 6
  BCF: 25
  LIN: 45
  Motile: 59
  Prog: 25
  STR: 78
  VAP: 67
  VCL: 66
  VSL: 50
